According to patent US20230026360A1, “DETECTION OF MOLECULAR INTERACTIONS” (Orionis Biosciences, Inc., priority 2019, published 2023):
“Also recorded” adds a separate entry of the source.

How the values were obtained:
Format in all cases: cell-based
CRBN-IKZF1 interaction = molecular target: T1, CRBN-IKZF1 interaction (Homo sapiens, UniProt Q96SW2); assay: MAPPIT forward assay, CRBN receptor fusion + IKZF1 gp130 fusion; conditions: forward configuration; HEK293T cells; EPO; dose-response; IKZF1 isoform 7
T1 construct: expressed in transfected cells; host or cells: HEK293T
Text: (§1) The traditional MAPPIT assay has been used to monitor protein-protein interactions. A bait protein (protein A) is expressed as a fusion protein in which it is genetically fused to an engineered intracellular receptor domain of the leptin receptor, which is itself fused to the extracellular domain of the erythropoietin (Epo) receptor. Binding of Epo ligand to the Epo receptor component results in activation of receptor-associated intracellular JAK2. However, activated JAK2 cannot activate the leptin receptor to trigger STAT3 binding and its phosphorylation because its tyrosine residues, normally phosphorylated by activated JAK2, have been mutated. […] Activation of STAT3 can be monitored by introduction of a STAT3-responsive reporter gene, including a luciferase-encoding gene or a gene encoding a fluorescent marker such as GFP or some other type of Fluorescent Protein (EGFP etc.). […]
(§2) Full size proteins were fused for each of the target/prey proteins tested, except in the case of IKZF1 where isoform 7 was used. […] Luciferase activity was measured 24 hours after test compound treatment using the Luciferase Assay System kit (PROMEGA, Madison, Wis.) with an Ensight plate reader (PERKIN ELMER LIFE SCIENCES, Waltham, Mass.). […]

CRBN-CSNK1A1 interaction = molecular target: T2, CRBN-CSNK1A1 interaction (Homo sapiens, UniProt Q96SW2); assay: MAPPIT inverse assay with alternative CSNK1A1 receptor fusion (leptin receptor extracellular domain, pCLG-CSNK1A1); conditions: inverse configuration, activated with leptin, 0, 0.1, 1, 10 μM, HEK293T
T2 construct: expressed in transfected cells; host or cells: HEK293T
Protocol: Cells were treated with leptin without or with the indicated dose of test compound at 24 hours after transfection. Luciferase activity was measured 24 hours after test compound treatment using the Luciferase Assay System kit (PROMEGA, Madison, Wis.) with an Ensight plate reader (PERKIN ELMER LIFE SCIENCES, Waltham, Mass.). […] Error bars represent standard deviations.

[1] = system: CRBN and human ORF(eome) cDNA library targets; assay: Inverse MAPPIT cell microarray ORF cDNA library screen with CRBN bait; conditions: HEK293T
Protocol: In order to identify ligand-induced CRBN substrates, or neosubstrates, a MAPPIT cell microarray screen was performed using the procedure described in Lievens, et al. “Proteome-scale binary interactomics in human cells.” Molecular & Cellular Proteomics 15.12 (2016): 3624-3639. In brief, HEK293T cells were transfected with a CRBN bait expression plasmid encoding a gp130-CRBN fusion construct. These transfected cells were then added to microarray screening plates containing a MAPPIT chimeric membrane receptor fusion expression plasmid collection covering over 15,000 ORFs. Each spot in the microarray contained a different chimeric receptor-ORF fusion expression plasmid, as well as a STAT3-responsive fluorescence protein-encoding reporter plasmid. Gp130-CRBN bait transfected cells landing and attaching on these spots therefore become transfected as well with the receptor-ORF prey plasmid and the reporter plasmid, resulting in a different CRBN-ORF combination being tested in the cells on every different microarray spot. Twenty-four hours after transfection cells were differentially stimulated with erythropoietin with and without the CRBN ligand CC-220 (1 μM final concentration), and reporter signal (GFP-like fluorescence reporter) was read out 48 hours later.

CRBN-IKZF3 interaction [2] = molecular target: T3, CRBN-IKZF3 interaction (Homo sapiens, UniProt Q96SW2); assay: MAPPIT inverse assay, CRBN gp130 fusion + IKZF3 receptor fusion; parameters: expressed in transfected cells; host or cells: HEK293T; conditions: inverse configuration; HEK293T cells; EPO; dose-response
Text: as §1, §2

CRBN-IKZF2 interaction = CRBN-IKZF2 interaction (Homo sapiens, UniProt Q96SW2); assay: MAPPIT inverse assay, CRBN gp130 fusion + IKZF2 receptor fusion; parameters: expressed in transfected cells; host or cells: HEK293T; conditions: inverse configuration; HEK293T cells; EPO; dose-response
Sequence of CRBN-IKZF2 interaction (Q96SW2 whole entry, the tested form may be a part): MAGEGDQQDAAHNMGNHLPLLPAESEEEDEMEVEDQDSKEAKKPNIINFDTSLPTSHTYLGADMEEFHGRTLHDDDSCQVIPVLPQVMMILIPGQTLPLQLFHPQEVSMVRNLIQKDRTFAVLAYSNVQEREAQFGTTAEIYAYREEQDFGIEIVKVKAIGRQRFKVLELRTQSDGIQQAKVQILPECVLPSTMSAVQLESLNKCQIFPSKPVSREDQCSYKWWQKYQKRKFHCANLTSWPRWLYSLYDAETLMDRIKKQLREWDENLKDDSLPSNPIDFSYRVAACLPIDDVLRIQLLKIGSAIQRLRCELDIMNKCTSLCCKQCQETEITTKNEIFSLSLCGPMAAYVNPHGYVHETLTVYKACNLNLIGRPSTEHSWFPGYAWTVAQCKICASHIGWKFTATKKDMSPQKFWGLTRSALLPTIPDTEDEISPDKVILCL
Sequence of CRBN-IKZF2 interaction (Q9UKS7 whole entry partner, the tested form may be a part): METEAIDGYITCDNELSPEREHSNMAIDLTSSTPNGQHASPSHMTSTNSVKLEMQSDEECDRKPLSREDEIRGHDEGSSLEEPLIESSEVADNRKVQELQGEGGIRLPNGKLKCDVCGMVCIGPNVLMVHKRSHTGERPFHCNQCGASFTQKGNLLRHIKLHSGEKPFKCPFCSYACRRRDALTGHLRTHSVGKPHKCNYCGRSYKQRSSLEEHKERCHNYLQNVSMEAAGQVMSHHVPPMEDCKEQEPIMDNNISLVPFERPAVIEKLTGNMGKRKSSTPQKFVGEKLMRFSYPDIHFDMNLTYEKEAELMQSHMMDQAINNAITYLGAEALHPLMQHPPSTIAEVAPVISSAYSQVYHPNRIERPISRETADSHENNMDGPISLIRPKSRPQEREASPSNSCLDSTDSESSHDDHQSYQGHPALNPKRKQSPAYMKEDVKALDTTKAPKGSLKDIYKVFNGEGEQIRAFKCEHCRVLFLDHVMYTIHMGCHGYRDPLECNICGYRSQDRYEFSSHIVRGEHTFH
Text: as §1, §2

CRBN-SALL4 interaction [3] = molecular target: T4, CRBN-SALL4 interaction (Homo sapiens, UniProt Q96SW2); assay: MAPPIT inverse assay, CRBN gp130 fusion + SALL4 receptor fusion; parameters: expressed in transfected cells; host or cells: HEK293T; conditions: inverse configuration; HEK293T cells; EPO; dose-response
Text: as §1, §2
Target sequence in this assay (Q96SW2 whole entry, the tested form may be a part): as the sequence (Q96SW2 whole entry, the tested form may be a part) above
Target sequence in this assay (Q9UJQ4 whole entry partner, the tested form may be a part): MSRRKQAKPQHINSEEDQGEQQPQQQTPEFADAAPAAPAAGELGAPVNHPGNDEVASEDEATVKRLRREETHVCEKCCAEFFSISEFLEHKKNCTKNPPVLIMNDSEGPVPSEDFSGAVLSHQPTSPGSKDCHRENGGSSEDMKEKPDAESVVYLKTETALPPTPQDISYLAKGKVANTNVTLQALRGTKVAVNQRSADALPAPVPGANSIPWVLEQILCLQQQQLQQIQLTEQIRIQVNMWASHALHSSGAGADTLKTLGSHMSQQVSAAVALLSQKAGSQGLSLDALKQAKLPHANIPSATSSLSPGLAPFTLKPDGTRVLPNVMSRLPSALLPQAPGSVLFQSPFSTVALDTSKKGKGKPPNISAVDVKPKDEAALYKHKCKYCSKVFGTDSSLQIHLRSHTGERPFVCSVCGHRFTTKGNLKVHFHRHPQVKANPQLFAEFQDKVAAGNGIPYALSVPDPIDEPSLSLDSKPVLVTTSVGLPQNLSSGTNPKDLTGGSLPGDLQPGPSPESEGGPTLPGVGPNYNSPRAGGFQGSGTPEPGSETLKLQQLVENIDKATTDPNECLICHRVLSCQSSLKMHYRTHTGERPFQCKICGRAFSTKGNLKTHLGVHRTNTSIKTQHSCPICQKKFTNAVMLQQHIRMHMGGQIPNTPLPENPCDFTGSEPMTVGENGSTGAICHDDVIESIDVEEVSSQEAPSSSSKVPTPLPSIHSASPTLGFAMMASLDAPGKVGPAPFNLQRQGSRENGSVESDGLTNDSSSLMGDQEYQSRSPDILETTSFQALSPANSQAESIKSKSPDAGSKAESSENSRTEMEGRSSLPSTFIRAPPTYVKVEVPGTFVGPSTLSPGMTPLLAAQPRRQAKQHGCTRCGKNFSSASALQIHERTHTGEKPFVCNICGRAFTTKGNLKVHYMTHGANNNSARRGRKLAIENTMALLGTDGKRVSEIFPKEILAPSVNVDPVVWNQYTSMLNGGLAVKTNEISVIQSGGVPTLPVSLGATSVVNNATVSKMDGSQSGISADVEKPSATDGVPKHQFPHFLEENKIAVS

CRBN-ZFP91 interaction = CRBN-ZFP91 interaction (Homo sapiens, UniProt Q96SW2); assay: MAPPIT inverse assay, CRBN gp130 fusion + ZFP91 receptor fusion; parameters: expressed in transfected cells; host or cells: HEK293T; conditions: inverse configuration; HEK293T cells; EPO; dose-response
Sequence of CRBN-ZFP91 interaction (Q96SW2 whole entry, the tested form may be a part): as the sequence (Q96SW2 whole entry, the tested form may be a part) above
Sequence of CRBN-ZFP91 interaction (Q96JP5 whole entry partner, the tested form may be a part): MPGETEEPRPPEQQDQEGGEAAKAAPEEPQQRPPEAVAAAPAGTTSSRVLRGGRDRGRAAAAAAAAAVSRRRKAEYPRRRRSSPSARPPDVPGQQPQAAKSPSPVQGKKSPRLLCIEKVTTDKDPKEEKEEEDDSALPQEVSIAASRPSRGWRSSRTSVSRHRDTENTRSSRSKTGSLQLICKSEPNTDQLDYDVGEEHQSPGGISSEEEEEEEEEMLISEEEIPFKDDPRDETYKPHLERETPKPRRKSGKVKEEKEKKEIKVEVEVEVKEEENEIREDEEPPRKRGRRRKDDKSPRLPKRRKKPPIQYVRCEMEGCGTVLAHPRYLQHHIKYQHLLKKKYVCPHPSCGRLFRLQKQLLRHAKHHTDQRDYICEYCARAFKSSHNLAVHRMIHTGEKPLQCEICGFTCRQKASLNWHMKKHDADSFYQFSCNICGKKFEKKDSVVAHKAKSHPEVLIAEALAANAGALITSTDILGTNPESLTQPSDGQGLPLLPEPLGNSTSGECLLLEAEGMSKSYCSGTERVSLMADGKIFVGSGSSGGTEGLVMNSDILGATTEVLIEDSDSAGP
Text: as §1, §2

[4] = molecular target: CRBN-CSNK1A (CK1a) interaction (Homo sapiens, UniProt Q96SW2); assay: MAPPIT inverse assay, CRBN gp130 fusion + CSNK1A1 receptor fusion; parameters: expressed in transfected cells; host or cells: HEK293T; conditions: inverse configuration; HEK293T cells; EPO; dose-response
Sequence of CRBN-CSNK1A (CK1a) interaction (Q96SW2 whole entry, the tested form may be a part): as the sequence (Q96SW2 whole entry, the tested form may be a part) above
Sequence of CRBN-CSNK1A (CK1a) interaction (P48729 whole entry partner, the tested form may be a part): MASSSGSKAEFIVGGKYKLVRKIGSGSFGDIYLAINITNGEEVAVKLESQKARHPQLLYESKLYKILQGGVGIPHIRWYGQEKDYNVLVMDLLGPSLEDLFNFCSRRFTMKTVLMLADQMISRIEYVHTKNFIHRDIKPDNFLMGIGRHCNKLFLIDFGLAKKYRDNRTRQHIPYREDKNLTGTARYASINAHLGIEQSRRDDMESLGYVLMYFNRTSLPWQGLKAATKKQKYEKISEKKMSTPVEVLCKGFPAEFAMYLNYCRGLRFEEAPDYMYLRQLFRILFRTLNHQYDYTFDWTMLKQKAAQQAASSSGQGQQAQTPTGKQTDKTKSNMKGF
Text: as §1, §2

CRBN-IKZF3 interaction [5] = molecular target: T3, CRBN-IKZF3 interaction; assay: MAPPIT forward assay, CRBN receptor fusion + IKZF3 gp130 fusion; parameters: MAPPIT chimeric receptor (EPO receptor extracellular domain + signaling-deficient leptin receptor part); expressed in transfected cells; host or cells: HEK293T; conditions: forward configuration; HEK293T cells; EPO; dose-response
Text: as §1, §2

CRBN-SALL4 interaction [6] = molecular target: T4, CRBN-SALL4 interaction; assay: MAPPIT forward assay, CRBN receptor fusion + SALL4 gp130 fusion; parameters: MAPPIT chimeric receptor (EPO receptor extracellular domain + signaling-deficient leptin receptor part); expressed in transfected cells; host or cells: HEK293T; conditions: forward configuration; HEK293T cells; EPO; dose-response
Text: as §1, §2
Target sequence in this assay (Q96SW2 whole entry, the tested form may be a part): as the sequence (Q96SW2 whole entry, the tested form may be a part) above

O=C1CC[C@H](N2Cc3c(OCc4ccc(CN5CCOCC5)cc4)cccc3C2=O)C(=O)N1 [CC-220]
compound-induced binding of IKZF1 to CRBN (luciferase reporter signal) (CRBN-IKZF1 interaction): can be detected with both the forward and the inverse assay configuration | compound-induced CRBN-CSNK1A1 interaction (CSNK1A1 neosubstrate recruitment) (CRBN-CSNK1A1 interaction): CSNK1A1 neosubstrate recruitment can be detected | induction of fluorescence reporter signal in ORF cDNA cell microarray screen ([1]; CC-220 1 μM final concentration, over 15,000 ORFs, erythropoietin): a significant induction of signal is observed for a number of ORF cDNAs | dose-response confirmation of binding of three ORF hits to CRBN ([1]; inverse MAPPIT luciferase assay, EPO): dose-dependent binding to CRBN | compound-induced binding of IKZF3 to CRBN (luciferase reporter signal) (CRBN-IKZF3 interaction [2]): an interaction signal response could be detected | compound-induced binding of IKZF2 to CRBN (luciferase reporter signal) (CRBN-IKZF2 interaction): an interaction signal response could be detected | compound-induced binding of SALL4 to CRBN (luciferase reporter signal) (CRBN-SALL4 interaction [3]): an interaction signal response could be detected | compound-induced binding of ZFP91 to CRBN (luciferase reporter signal) (CRBN-ZFP91 interaction): an interaction signal response could be detected | compound-induced binding of CSNK1A (CK1a) to CRBN (luciferase reporter signal) [4]: an interaction signal response could be detected; also recorded: specific signal in the inverse | compound-induced binding of IKZF3 to CRBN (luciferase reporter signal) (CRBN-IKZF3 interaction [5]): only in the inverse assay setup an interaction signal response could be detected | compound-induced binding of SALL4 to CRBN (luciferase reporter signal) (CRBN-SALL4 interaction [6]): only in the inverse assay setup an interaction signal response could be detected
